From the NIST ThermoML archive (doi:10.1021/je400894j)
Numbers after ± are expanded uncertainties.

Experiment: mn = molality of the nth substance listed, in mol/kg
Settings: 101 kPa, Liquid, Falling or rolling sphere viscometry

O=C([O-])CC(O)(CC(=O)[O-])C(=O)[O-].[Na+].[Na+].[Na+] [trisodium citrate] + O
viscosity [mPa·s]
Settings | 288.15 K | 298.15 K | 308.15 K | 318.15 K
m1 = 0.2 | 1.343 ± 0.032 | 1.056 ± 0.031 | 0.858 ± 0.031 | 0.719 ± 0.031
m1 = 0.4 | 1.661 ± 0.033 | 1.296 ± 0.032 | 1.047 ± 0.031 | 0.868 ± 0.031
m1 = 0.6 | 2.072 ± 0.034 | 1.592 ± 0.033 | 1.277 ± 0.032 | 1.049 ± 0.031
m1 = 0.8 | 2.633 ± 0.037 | 2.002 ± 0.034 | 1.581 ± 0.033 | 1.287 ± 0.032
